A value given as a limit tells only on which side of the number the result lay.

The subject of the assay is HCV replicon. The experiment in a line: HCV replicon replication assay (NPT ELISA) in Huh-7 replicon-containing cells. It counts as cell-based. Conditions: Hepatitis C virus, 72 h; HCV replicon in Huh-7 cells, three days incubation; read-out: EC50. The method, then:
Compounds claimed herein are tested for the ability to inhibit viral replication of the Hepatitis C replicon in cultured cells in which the HCV replicon construct has been incorporated. The HCV replicon system was described by Bartenschlager, et. al (Science, 285, pp. 110-113 (1999)). The replicon system is predictive of in vivo anti-HCV activity; compounds that are active in humans uniformly evidence activity in the replicon assay.
In this assay HCV replicon containing cells are treated with different concentrations of the test compound to ascertain the ability of the test compound to suppress replication of the HCV replicon. As a positive control, HCV replicon-containing cells are treated with different concentrations of interferon alpha, a known inhibitor of HCV replication. The replicon assay system includes Neomycin Phosphotransferase (NPT) as a component of the replicon itself in order to detect the transcription of replicon gene products in the host cell. Cells in which the HCV replicon is actively replicating have high levels of NPT; the level of NPT is proportional to HCV replication. […] The NPT level of each sample is measured using a captured ELISA.
A protocol for testing compounds for the ability to inhibit viral replication of the Hepatitis C replicon cultured cells in which the replicon construct has been incorporated, follows.
The HCV replicon contains, 5′-3′, the HCV-IRES, the neomycin phosphotransferase (neo) gene, the IRES of encephalomyocarditis virus, which directs translation of HCV sequences NS3 to NS5B, and the 3′-NTR. The sequence of the HCV replicon has been deposited in GenBank (Accession no. AJ242652).
The replicon is transfected into Huh-7 cells using standard methods such as electroporation.
The equipment and materials include, but are not limited to, Huh-7 HCV replicon-containing cells, maintenance media (DMEM (Dulbecco's modified Eagle media) supplemented with 10% FBS, L-glutamine, non-essential amino acids, penicillin (100 units/ml), streptomycin (100 micrograms/ml), and 500 micrograms/ml of Geneticin (G418), screening media (DMEM supplemented with 10% FBS, L-glutamine, non-essential amino acids, penicillin (100 units/ml) and streptomycin (100 micrograms/ml)), 96 well tissue culture plates (flat bottom), 96 well plates (U bottom for drug dilution), Interferon alpha for positive control, fixation reagent (such as methanol: acetone), primary antibody (rabbit anti-NPTII), secondary antibody: Eu-N1 l, and enhancement solution.
HCV replicon-containing cells support high levels of viral RNA replicon replication when their density is suitable. Over-confluency causes decreased viral RNA replication. Therefore, cells must be kept growing in log phase in the presence of 500 micrograms/ml of G418. Generally, cells should be passed twice a week at 1: 4-6 dilution. Cell maintenance is conducted as follows:
HCV replicon-containing cells are examined under a microscope to ensure that cells growing well. Cells are rinsed once with PBS and 2 ml trypsin is added. The cell/trypsin mixture is incubated at 37° C. in a CO2 incubator for 3-5 minutes. After incubation 10 ml of complete media is added to stop the trypsinization reaction. Cells are blown gently, put into a 15 ml tube, and spun at 1200 rpm for 4 minutes. The trypsin/medium solution is removed. Medium (5 ml) is added and the cells are mixed carefully. The cells are counted.
The cells are then seeded onto 96-well plates at a density of 6000-7500 cells/100 microliters/well (6-7.5×10^5 cells/10 ml/plate). The plates are then incubated at 37° C. in a 5% CO2 incubator.
Cells are examined under a microscope approximated 24 hours after seeding and prior to adding drugs. If counting and dilution were performed correctly, cells are 60-70% confluent and nearly all cells should attach and spread evenly in the well.
HCV replicon-containing cells are rinsed with once PBS once; 2 mls of trypsin are then added. Cells are incubated at 37° C. in a 5% CO2 incubator for 3-5 minutes. […]
A general note: In antiviral work, replicon cells carry a viral genome segment that copies itself.
Usually EC50 stands for the concentration that produces a half-maximal response. As for `C=CC1CC1(NC(=O)[C@@H]1C[C@@H](Oc2cc(-c3ccccc3)nc3cc(OC)ccc23)CN1C(=O)C[C@H](C(=O)N1C(=O)OC[C@@H]1Cc1ccccc1)C(C)(C)C)C(=O)NS(=O)(=O)C1CC1` (stereo partly drawn) [Compound 47, (2S,4R)-1-((S)-3-((S)-4-benzyl-2-oxooxazolidine-3-carbonyl)-4,4-dimethyl-pentanoyl)-N-(1-(cyclopropyl-sulfonylcarbamoyl)-2-vinylcyclopropyl)-4-(7-methoxy-2-phenylquinolin-4-yloxy)pyrrolidine-2-carboxamide], the EC50 fell in the range of 1000 to 10000 nM. Under `C=C[C@@H]1C[C@]1(NC(=O)[C@@H]1C[C@@H](Oc2cc(-c3ccccc3)nc3cc(OC)ccc23)CN1C(=O)[C@@H](CC(=O)N1CCCCC1)CC1CC1)C(=O)NS(=O)(=O)C1CC1` [Compound 124, (2S,4R)-1-((R)-2-(cyclopropylmethyl)-4-oxo-4-(piperidin-1-yl)butanoyl)-N-((1R,2S)-1-(cyclopropylsulfonyl-carbamoyl)-2-vinylcyclopropyl)-4-(7-methoxy-2-phenylquinolin-4-yloxy)pyrrolidine-2-carboxamide] stands less than 1000 nM; under `C=C[C@H]1C[C@]1(NC(=O)[C@@H]1C[C@@H](Oc2cc(-c3ccccc3)nc3cc(OC)ccc23)CN1C(=O)C[C@@H](CC1CCCC1)C(=O)N1CCCCC1)C(=O)NS(=O)(=O)C1CC1` [Compound 56, (2S,4R)-1-((R)-3-(cyclopentyl-methyl)-4-oxo-4-(piperidin-1-yl)butanoyl)-N-((1R,2R)-1-(cyclopropyl-sulfonylcarbamoyl)-2-vinylcyclopropyl)-4-(7-methoxy-2-phenylquinolin-4-yloxy)pyrrolidine-2-carboxamide], 1000 to 10000 nM; under `C=C[C@@H]1C[C@]1(NC(=O)[C@@H]1C[C@@H](Oc2cc(-c3ccccc3)nc3c(C)c(OC)ccc23)CN1C(=O)[C@@H](CC(=O)N1CCCCC1)C(C)(C)C)C(=O)NS(=O)(=O)C1CC1` [Compound 239], less than 1000 nM. Regarding `C=C[C@@H]1C[C@]1(NC(=O)[C@@H]1C[C@@H](Oc2cc(-c3ccccc3)nc3cc(OC)ccc23)CN1C(=O)[C@@H](CC(=O)N1CCCCC1)C(C)(C)C)C(=O)NS(=O)(=O)C(F)(F)F` [Compound 66, (2S,4R)-1-((S)-2-tert-butyl-4-oxo-4-(piperidin-1-yl)butanoyl)-4-(7-methoxy-2-phenylquinolin-4-yloxy)-N-((1R,2S)-1-(trifluoromethyl-sulfonylcarbamoyl)-2-vinylcyclo-propyl)pyrrolidine-2-carboxamide], the EC50 was 1000 to 10000 nM. Under `C=C[C@@H]1C[C@]1(NC(=O)[C@@H]1C[C@@H](NC(=O)c2cc(-c3ccccc3)nc3ccccc23)CN1C(=O)[C@@H](CC(=O)N1CCCCC1)C(C)(C)C)C(=O)NS(=O)(=O)C1CC1` [Compound 171, N-((3R,5S)-1-((S)-2-tert-butyl-4-oxo-4-(piperidin-1-yl)butanoyl)-5-((1R,2S)-1-(cyclopropyl-sulfonylcarbamoyl)-2-vinylcyclo-propylcarbamo-yl)pyrrolidin-3-yl)-2-phenylquinoline-4-carboxamide] stands less than 1000 nM; under `C=C[C@@H]1C[C@]1(NC(=O)[C@@H]1C[C@@H](Oc2cc(-c3ccccc3)nc3cc(OC)ccc23)CN1C(=O)[C@@H](CC(=O)N1CCOCC1)C(C)(C)C)C(=O)NS(=O)(=O)C1CC1` [Compound 48, (2S,4R)-1-((S)-2-tert-butyl-4-morpholino-4-oxobutanoyl)-N-((1R,2S)-1-(cyclo-propylsulfonyl-carbamoyl)-2-vinylcyclopropyl)-4-(7-methoxy-2-phenylquinolin-4-yloxy)pyrrolidine-2-carboxamide], less than 1000 nM. Under `C=C[C@@H]1C[C@]1(NC(=O)[C@@H]1C[C@@H](Oc2cc(-c3ccccn3)nc3c(Cl)c(OC)ccc23)CN1C(=O)[C@@H](CC(=O)N1CCC(F)(F)CC1)C(C)(C)C)C(=O)NS(=O)(=O)C1CC1` [Compound 194, (2S,4R)-1-((S)-2-tert-butyl-4-(4,4-difluoropiperidin-1-yl)-4-oxobutanoyl)-4-(8-chloro-7-methoxy-2-(pyridin-2-yl)quinolin-4-yloxy)-N-((1R)-1-(cyclopropyl-sulfonylcarbamoyl)-2-vinyl-cyclopropyl)pyr-rolidine-2-carboxamide] stands less than 1000 nM; under `C=C[C@@H]1C[C@]1(NC(=O)[C@@H]1C[C@@H](Oc2cc(-c3ccccc3)nc3cc(OC)ccc23)CN1C(=O)[C@@H](CC(=O)N1CCCC1C(=O)Nc1nccs1)C(C)(C)C)C(=O)NS(=O)(=O)C1CC1` (stereo partly drawn) [Compound 212, (2S,4R)-1-((S)-2-tert-butyl-4-oxo-4-((S)-2-(thiazol-2-ylcarbamoyl)pyr-rolidin-1-yl)butanoyl)-N-((1R)-1-(cyclo-propylsulfonyl-carbamoyl)-2-vinylcyclopropyl)-4-(7-methoxy-2-phenylquinolin-4-yloxy)pyrrolidine-2-carboxamide], less than 1000 nM. For `C=C[C@@H]1CC1(NC(=O)[C@@H]1C[C@@H](Oc2nc(-c3ccccn3)cc3c(Cl)c(OC)ccc23)CN1C(=O)[C@@H](CC(=O)N1CCC(C(F)(F)F)CC1)C(C)(C)C)C(=O)NS(=O)(=O)C1CC1` (mixture of isomers) [Compound 245, (2S,4R)-1-((S)-2-tert-butyl-4-oxo-4-(4-(trifluoro-methyl)piperidin-1-yl)butanoyl)-4-(5-chloro-6-methoxy-3-(pyridin-2-yl)isoquinolin-1-yloxy)-N-((S)-1-(cyclopropyl-sulfonylcarbamoyl)-2-vinylcyclo-propyl)pyrrolidine-2-carboxamide], the EC50 is less than 1000 nM. For `C=C[C@@H]1C[C@]1(NC(=O)[C@@H]1C[C@@H](N(Cc2ccccn2)C(=O)n2c3ccccc3c3ccccc32)CN1C(=O)[C@@H](CC(=O)N1CCCCC1)C(C)(C)C)C(=O)NS(=O)(=O)C1CC1` [Compound 191, N-((3R,5S)-1-((S)-2-tert-butyl-4-oxo-4-(piperidin-1-yl)butanoyl)-5-((1R)-1-(cyclopropylsulfonyl-carbamoyl)-2-vinyl-cyclopropyl-carbamoyl)pyrrolidin-3-yl)-N-(pyridin-2-ylmethyl)-9H-carbazole-9-carboxamide] the value was less than 1000 nM; for `C=C[C@@H]1C[C@]1(NC(=O)[C@@H]1C[C@@H](Oc2cc(-c3ccccc3)nc3cc(OC)ccc23)CN1C(=O)[C@@H](CC(=O)N1CC(Cl)C1)C(C)(C)C)C(=O)NS(=O)(=O)C1CC1` [Compound 224, (2S,4R)-1-((S)-2-tert-butyl-4-(3-chloroazetidin-1-yl)-4-oxobutanoyl)-N-((1R)-1-(cyclopropyl-sulfonylcarbamoyl)-2-vinylcyclopropyl)-4-(7-methoxy-2-phenylquinolin-4-yloxy)pyrrolidine-2-carboxamide], less than 1000 nM; for `C=CC1CC1(NC(=O)[C@@H]1C[C@@H](Oc2cc(-c3ccccc3)nc3cc(OC)ccc23)CN1C(=O)[C@@H](CC(=O)N1CCCC(C)C1)C(C)(C)C)C(=O)NS(=O)(=O)C1CC1` (stereo partly drawn) [Compound 44, (2S,4R)-1-((2S)-2-tert-butyl-4-(3-methylpiperidin-1-yl)-4-oxobutanoyl)-N-(1-(cyclopropyl-sulfonyl-carbamoyl)-2-vinylcyclopropyl)-4-(7-methoxy-2-phenylquinolin-4-yloxy)pyrrolidine-2-carboxamide], 1000 to 10000 nM. Under `C=C[C@@H]1C[C@]1(NC(=O)[C@@H]1C[C@@H](N(Cc2ccccn2)C(=O)n2c3ccccc3c3ccccc32)CN1C(=O)[C@@H](CC(=O)N1CCCC(F)(F)C1)C(C)(C)C)C(=O)NS(=O)(=O)C1CC1` [Compound 192, N-((3R,5S)-1-((S)-2-tert-butyl-4-(3,3-difluoropiperidin-1-yl)-4-oxobutanoyl)-5-((1R)-1-(cyclopropylsulfonyl-carbamoyl)-2-vinylcyclopropyl-carbamoyl)pyrrolidin-3-yl)-N-(pyridin-2-ylmethyl)-9H-carbazole-9-carboxamide] stands less than 1000 nM.

Source of the values: patent US9133115B2 (ACHILLION PHARMACEUTICALS, INC., priority 2008, dated 2015).
